From patent US4305944A, “N-[(4-[3-cyano substituted pyridyl]piperazino)alkyl]-azaspirodecanediones” (priority 1980, dated 1981)
Where two headings read alike, the source gives them in different places.

Assays:
[1] = target: T1, alpha-adrenergic receptor (Rattus norvegicus, UniProt P43140); assay: Test VII: alpha-adrenergic receptor blocking action in vitro, isolated rat seminal vesicle, 1-norepinephrine as spasmogen
T1 sequence (P43140 1-466): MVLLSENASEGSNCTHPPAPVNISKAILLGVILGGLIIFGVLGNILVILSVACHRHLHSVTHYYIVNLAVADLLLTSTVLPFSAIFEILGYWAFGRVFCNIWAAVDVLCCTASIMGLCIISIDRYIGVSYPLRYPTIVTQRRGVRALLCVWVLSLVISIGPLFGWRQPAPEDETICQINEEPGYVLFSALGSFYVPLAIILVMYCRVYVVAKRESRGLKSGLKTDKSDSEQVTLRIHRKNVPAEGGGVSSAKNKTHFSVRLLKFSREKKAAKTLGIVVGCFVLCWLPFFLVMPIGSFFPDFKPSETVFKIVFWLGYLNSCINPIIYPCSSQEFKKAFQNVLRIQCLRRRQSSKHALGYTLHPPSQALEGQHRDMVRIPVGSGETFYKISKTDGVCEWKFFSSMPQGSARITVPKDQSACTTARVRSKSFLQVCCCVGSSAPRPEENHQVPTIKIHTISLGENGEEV
Description: (§3) IC50 (mcg/ml) alpha-adrenergic receptor blocking action
(§4) in vitro - rat seminal vesicle - 1-norepinephrine
(§5) Test VII is an in vitro measurement of alpha-adrenergic receptor blocking action employing the isolated seminal vesicle of the rat. […] A low value represents high activity.

[2] = test system: fed rat; assay: Test II: conditioned avoidance response (CAR), fed rat treated intraperitoneally (psychotropic); type: in vivo; details: for activity in the conditioned avoidance response test (Test II): in words; for ED50: ip, read-out: CAR-ED50
Protocol: Tests I and II refer to the conditioned avoidance response. Data with respect to Test II were obtained by the method described in the above Wu, et al. patents and publications in which trained rats were maintained on a standard laboratory diet and were treated intraperitoneally with the test drug. Test I is a modification of the same conditioned avoidance response test except that fasted rats were employed and the animals were treated orally.

[3] = target: alpha-adrenergic receptors in the cerebral cortex; assay: Test VI: receptor binding assay, tritiated WB-4101 as ligand (alpha-adrenergic blockade); set-up: species or system rat; details: for IC50: Test VI, tritiated WB-4101 as ligand, rat cerebral cortex, in excess of 100 nM is considered inactive
Description: (§1) Tests V and VI are receptor binding assays which measure the ability of a compound to prevent the binding of a radiolabeled ligand to specific high affinity sites in brain tissue. According to the state of the art, various ligands have been identified with aspects of CNS function or potential for side effects. The ability of a compound to inhibit labeled ligand binding in vitro is considered to be a reflection of the compound's ability to effect the corresponding CNS function or side effect in vivo.

[4] = target: T1, alpha-adrenergic receptor
Description: as §3, §4, §5

[5] = test system: mouse; assay: Test IV: spontaneous motor activity, activity cage mouse treated intraperitoneally (CNS depression); type: in vivo; details: in words; mouse
Description: (§6) AED-0.3 (mg/kg. of body weight) activity cage,
(§7) Test IV involves measurement of spontaneous motor activity of mice as a reflection of the CNS depressant or sedative side effects of the test compound. […] The AED-0.3 reflects approximately 50% reduction in spontaneous motor activity.

[6] = as above; type: in vivo; details: in vivo, ip
Description: as §6, §7

[7] = Test III: spontaneous motor activity, activity cage mouse treated orally (CNS depression); details: in vivo, po
Description: (§8) AED-0.3 (mg/kg. of body weight) activity cage
mouse treated orally (CNS depression).
as §7

[8] = test system: fasted rat; assay: Test I: conditioned avoidance response (CAR), fasted rat treated orally (psychotropic); type: in vivo; details: for ED50: read-out: CAR-ED50
Protocol: I. CAR-ED50 (mg/kg. of body weight) fasted rat
treated orally (psychotropic).
Tests I and II refer to the conditioned avoidance response. […] Test I is a modification of the same conditioned avoidance response test except that fasted rats were employed and the animals were treated orally.

[9] = test system: mouse; assay: Test III: spontaneous motor activity, activity cage mouse treated orally (CNS depression); details: in words; for sedative action (Tests III and IV): oral and intraperitoneal
Description: as §8
mouse treated orally (CNS depression).
as §7

[10] = test system: rat; assay: rat catalepsy test; type: in vivo; details: for rat catalepsy test result: oral doses of 200 mg/kg.
Protocol: (§2) That dose of Compound No. 7, however, constituted the ALD50 dose for rats. In mice the ALD50 of Compound No. 7 was determined to be 500 mg/kg. of body weight.

[11] = target: T2, dopamine binding, corpus striatum (Rattus norvegicus, UniProt P61169); assay: Test V: receptor binding assay, tritiated spiperone as ligand, dopamine binding assay (psychotropic); details: tritiated siperone as ligand, Compound 7: average of two determinations
T2 construct: The corpus striatum of male Sprague-Dawley rats (Charles River Laboratories) is employed as the test tissue; tissue Charles River Laboratories; host or cells: corpus striatum of male Sprague-Dawley rats
T2 sequence (P61169 whole entry): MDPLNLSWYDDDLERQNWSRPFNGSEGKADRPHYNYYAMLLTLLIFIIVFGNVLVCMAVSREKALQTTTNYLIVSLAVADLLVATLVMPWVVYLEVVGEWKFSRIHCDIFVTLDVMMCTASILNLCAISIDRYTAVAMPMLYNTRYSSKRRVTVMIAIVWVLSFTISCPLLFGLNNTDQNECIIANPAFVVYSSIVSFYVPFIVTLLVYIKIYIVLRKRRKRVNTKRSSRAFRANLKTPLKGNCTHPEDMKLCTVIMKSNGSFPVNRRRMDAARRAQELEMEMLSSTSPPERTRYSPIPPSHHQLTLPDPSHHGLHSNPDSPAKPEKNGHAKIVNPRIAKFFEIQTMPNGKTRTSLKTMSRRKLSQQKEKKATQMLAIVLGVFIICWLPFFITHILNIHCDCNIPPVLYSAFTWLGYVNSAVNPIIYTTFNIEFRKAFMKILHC
Description: V. Receptor binding assay, IC50 in nM, tritiated siperone as
as §1
Test V is a dopamine binding assay which reflects neuroleptic activity (Burt, Creese, and Snyder, Molec. Pharmacol. 12:800 (1976); Burt, Creese, and Snyder, Science 196: 326 (1977); Creese, Burt, and Snyder, Science 192: 481 (1976)). The corpus striatum of male Sprague-Dawley rats (Charles River Laboratories) is employed as the test tissue. The radiolabeled ligand is tritiated spiperone. […] Thus, any value less than 1000 nM in Test V represents potential neuroleptic utility.

[12] = ALD50 in mice; details: mouse, in vivo
Protocol: as §2

[13] = ALD50 for rats; details: rat, in vivo, oral dose of the catalepsy test
Protocol: as §2

[14] = in vivo; details: mouse, po
Description: as §8
mouse treated orally (CNS depression).
as §7

[15] = Test II, fed rat, intraperitoneal
[16] = Test IV, activity cage mouse, intraperitoneal, reflects approximately 50% reduction in spontaneous motor activity, read-out: AED-0.3

Question: Which results are given for COc1cccc(N2CCN(CCCN3C(=O)CC4(CCCC4)CC3=O)CC2)n1 [Compound No. 2]?
Answer: IC50 [1]: 0.182 µM; activity in the conditioned avoidance response test (Test II) ([2]; fed rat, intraperitoneal): very substantially less active; ED50 [2, 15]: > 50 mg/kg; IC50 [3]: 0.048 µM; alpha-adrenergic blocking agent (Tests VI and VII) [4]: relatively strong; activity by intraperitoneal route (Test IV) relative to oral route (Test III) [5]: several-fold stronger activity; ED50 [6, 16]: 7.4 mg/kg; ED50 [7]: 82 mg/kg

Question: With O=C1CC2(CCCC2)CC(=O)N1CCN1CCN(c2ccccn2)CC1 [compound 1] as the compound, how does the IC50 [1] read?
Answer: 5.83 µM

Question: And the “activity in the conditioned avoidance response test (Test II)” value ([2]; fed rat, intraperitoneal)?
Answer: very substantially less active

Question: What about the ED50 [2, 15] of the same compound?
Answer: 22.6 mg/kg

Question: And the ED50 [6, 16]?
Answer: 41 mg/kg

Question: For O=C1CC2(CCCC2)CC(=O)N1CCCCN1CCN(c2ccccn2)CC1 [Compound No. 3], which IC50 [1] is on record?
Answer: 0.871 µM

Question: And the ED50 [2, 15]?
Answer: 2.8 mg/kg

Question: What about the IC50 [3] of the same compound?
Answer: 0.28 µM

Question: What about the “activity by intraperitoneal route (Test IV) relative to oral route (Test III)” value [5] of the same compound?
Answer: several-fold stronger activity

Question: What about the ED50 [6, 16] of the same compound?
Answer: 2.6 mg/kg

Question: And the ED50 ([8]; Test I, fasted rat, oral)?
Answer: 34 mg/kg

Question: What about the “sedative action (Tests III and IV)” value [9] of the same compound?
Answer: high

Question: And the ED50 [7]?
Answer: 10 mg/kg

Question: For CN(C)CCCN1c2ccccc2Sc2ccc(Cl)cc21 [Chlorpromazine, chlorpromazine], which alpha-adrenergic blocking activity ([1]; in words, rat seminal vesicle) is on record?
Answer: strong

Question: And the ED50 ([2]; Rattus norvegicus)?
Answer: 4.8 mg/kg

Question: What about the IC50 [3] of the same compound?
Answer: 0.031 µM

Question: What about the “ED5 in the rat catalepsy test” value [10] of the same compound?
Answer: 4.1 mg/kg

Question: What about the ED50 [6, 16] of the same compound?
Answer: 3.6 mg/kg

Question: And the ED50 ([8]; Rattus norvegicus, po)?
Answer: 39 mg/kg

Question: Which results are given for COc1cccnc1N1CCN(CCCCN2C(=O)CC3(CCCC3)CC2=O)CC1 [Compound No. 7]?
Answer: IC50 [11]: 0.1 µM; IC50 [3]: 0.065 µM; rat catalepsy test result [10]: inactive; LD50 [12]: 500 mg/kg; LD50 [13]: 200 mg/kg; ED50 ([8]; Test I, fasted rat, oral): 55 mg/kg

Question: With CC1CN(c2ncccc2C#N)CCN1CCCCN1C(=O)CC2(CCCC2)CC1=O (centres unmarked) [compound 5, 2-[4-[4-(7,9-Dioxo-8-azaspiro[4.5]decan-8-yl)butyl]-3-methyl-1-piperazinyl]pyridine-3-carbonitrile] as the compound, how does the IC50 [11] read?
Answer: 0.4 µM

Question: And the ED50 ([8]; Test I, fasted rat, oral)?
Answer: 85 mg/kg

Question: Which IC50 [3] does the source give for N#Cc1cccnc1N1CCN(CCCCN2C(=O)CC3(CCCC3)CC2=O)CC1 [Compound No. 4, 2-[4-[4-(7,9-Dioxo-8-azaspiro[4.5]decan-8-yl)butyl]-1-piperazinyl]pyridine-3-carbonitrile] here?
Answer: 0.36 µM

Question: What about the “potency in Test VI (alpha-adrenergic blocking action)” value ([3]; in words) of the same compound?
Answer: low potency

Question: And the “rat catalepsy test result” value [10]?
Answer: inactive

Question: And the ED50 ([8]; Test I, fasted rat, oral)?
Answer: 24 mg/kg

Question: And the “potency in Test I (neuroleptic action)” value ([8]; in words, fasted rat, oral)?
Answer: good potency

Question: What about the “potency in Test III (sedative action)” value ([9]; oral) of the same compound?
Answer: low potency

Question: What about the “sedative action (Tests III and IV)” value [9] of the same compound?
Answer: lack of sedative action

Question: What about the ED50 [7] of the same compound?
Answer: 97 mg/kg

Question: Which ED50 [14] does the source give for O=C1CC2(CCCC2)CC(=O)N1CCCCN1CCN(c2ncccn2)CC1 [Compound No. 6, buspirone] here?
Answer: 92 mg/kg

Question: And the ED50 [2, 15]?
Answer: 4.3 mg/kg

Question: And the “rat catalepsy test result” value [10]?
Answer: inactive

Question: And the ED50 ([6]; mouse)?
Answer: 33 mg/kg

Question: What about the ED50 ([8]; Test I, fasted rat, oral) of the same compound?
Answer: 48 mg/kg
